Measured values from patent US9920039B2, “1,2,4-Oxadiazol compounds active against gram-positive pathogens” (UNIVERSITÀ DEGLI STUDI DI MILANO—BICOCCA, priority 2013, dated 2018).
Converted amounts (≈) assume the structure as drawn. Like-named read-outs stand apart in the source and are kept apart here.

Columns and labels:
[1] = test system: Staphylococcus aureus ATCC 29213; test: MIC by broth microdilution (CLSI); assay type: cell-based; details: ATCC 29213
From the text: (§1) Several well characterized for their antibiotic-susceptibility phenotype Staphylococcus aureus isolates were used for the determination of the in vitro antibacterial activity of the studied compounds. In particular, S. aureus ATCC 29213 reference standard strain and S. aureus M923 (collection strain) were used as MSSA strains. Among MRSA, S. aureus MU50 (ATCC 700699) reference standard strain and two collection strains (433 and F511) were used for susceptibility assays.
(§2) The in vitro antibacterial activity of the new agents was studied by determining their minimum inhibitory concentrations (MICs) by means of the broth microdilution method according to the Clinical and Laboratory Standards Institute (CLSI) guidelines.[16] Briefly, serial 2-fold dilutions of each compound were made using the Cation adjusted Mueller-Hinton broth (CAMHB) in microtitre plates with 96 wells. Dimethyl sulfoxide (DMSO) was used as solvent for all the synthesized compounds. An equal volume of the bacterial inoculum (1×10^6 CFU/mL) was added to each well on the microtitre plate containing 0.05 mL of the serial antibiotic dilutions. The microtitre plate was then incubated at 37° C. for 18-24 h after which each well was analysed for the presence of bacterial growth. The MIC was defined as the lowest concentration of antimicrobial agent able to cause inhibition of bacterial growth as shown by the lack of turbidity of the culture medium. […] Final DMSO concentrations were also taken into account in all the biological assays.
(§3) The antimicrobial activities, summarized in Table 2, were determined by the “gold standard” method of broth microdilution, as recommended by the Clinical Laboratory Standards Institute (CLSI) (See the Experimental Section). […] In detail, the bacterial strains were tested: Staphylococcus aureus ATCC 29213, a clinical strain of methicillin-susceptible S. aureus (M923), S. aureus MU50 (methicillin-resistant—MRSA), and two methicillin-resistant clinical strains, 433 and F511.
(§4) The antimicrobial activities, summarized in Table 3, were determined by the “gold standard” method of broth microdilution, as recommended by the Clinical Laboratory Standards Institute (CLSI) (See the Experimental Section). The minimum inhibitory concentration (MIC) values were expressed in μg/mL. […] In detail, the tested bacterial strains were: Staphylococcus aureus ATCC 29213, a clinical strain of methicillin-susceptible S. aureus (M923), S. aureus MU50 (methicillin-resistant—MRSA) strain, and two methicillin-resistant clinical strains, 433 and F511.

MRSA clinical strain 433 = test: MIC by broth microdilution (CLSI); assay type: cell-based, Staphylococcus aureus; details: MRSA 433
From the text: as §1, §2, §3, §4

[2] = test system: MRSA clinical strain F511; test: MIC by broth microdilution (CLSI); assay type: cell-based, Staphylococcus aureus
From the text: as §1, §2, §3, §4

[3] = test system: S. aureus MU50 (ATCC 700699), methicillin-resistant (MRSA); test: MIC by broth microdilution (CLSI); assay type: cell-based, Staphylococcus aureus
From the text: as §1, §2, §3, §4

[4] = test system: methicillin-susceptible S. aureus (M923); test: MIC by broth microdilution (CLSI); assay type: cell-based, Staphylococcus aureus; details: MSSA M923
From the text: as §1, §2, §3, §4

[5] = test system: 6 ATCC (4MSSA, 2 MRSA)plus45 MRSA all LZD sensitive; test: MIC on strain panel (Table 4); assay type: cell-based, Staphylococcus aureus; details: 6 ATCC plus 45 MRSA; for MIC-range: tested range ≤0.06 - >128
From the text: as §2

[6] = test system: 12 MRSE all LZD sensitive; test: MIC on strain panel (Table 4); assay type: cell-based, Staphylococcus epidermidis
From the text: as §2

[7] = Staphylococcus aureus, ATCC29213, racemic mixture, Table 2, read-out: MIC
[8] = Staphylococcus aureus, racemic mixture, Table 2, read-out: MIC
[9] = Staphylococcus aureus, ATCC29213, racemic form, Table 3, read-out: MIC
[10] = Staphylococcus aureus, racemic form, Table 3, read-out: MIC

Structure (SMILES)	MIC [1, 7] [µg/mL]	MIC (MRSA clinical strain 433; [8]) [µg/mL]	MIC [2, 8] [µg/mL]	MIC [3, 8] [µg/mL]	MIC [4, 8] [µg/mL]	other results
Cc1noc(-c2ccc(N3CC(CI)OC3=O)cc2)n1 (racemic) [Compound A1a, 3-(4′-(3″-methyl-1,2,4-oxadiazol-5″-yl)-phenyl)-5-(iodomethyl)-oxazolidin-2-one]	> 50	25 (≈ 64.9 µM)	50 (≈ 130 µM)	50 (≈ 130 µM)	> 50	melting point: 145 to 147 °C
Cc1noc(-c2ccc(N3CC(CI)OC3=O)cc2F)n1 (racemic) [Compound A1b, 3-(3′-fluoro-4′-(3″-methyl-1,2,4-oxadiazol-5″-yl)-phenyl)-5-(iodomethyl)-oxazolidin-2-one]	> 50	50 (≈ 124 µM)	> 50	50 (≈ 124 µM)	> 50	melting point: 148 to 149 °C
Cc1noc(-c2ccc(N3CC(CN=[N+]=[N-])OC3=O)cc2)n1 (racemic) [Compound A2a, 3-(4′-(3″-methyl-1,2,4-oxadiazol-5-yl)-phenyl)-5-(azidometil)-oxazolidin-2-one]	> 50	> 50	> 50	> 50	> 50	melting point: 133.9 to 135 °C
Cc1noc(-c2ccc(N3CC(CN=[N+]=[N-])OC3=O)cc2F)n1 (racemic) [Compound A2b, 3-(3′-fluoro-4′-(3″-methyl-1,2,4-oxadiazol-5-yl)-phenyl)-5-(azidometil)-oxazolidin-2-one]	> 50	> 50	> 50	> 50	> 50	melting point: 126.2 to 127.7 °C
CC(=O)NCC1CN(c2ccc(-c3nc(C)no3)c(F)c2)C(=O)O1 (racemic) [Compound A3b, 3-(3′-fluoro-4′-(3″-methyl-1,2,4-oxadiazol-5-yl)-phenyl)-5-(N-acetylaminomethyl)-oxazolidin-2-one]	12.5 (≈ 37.4 µM)	1.6 (≈ 4.79 µM)	12.5 (≈ 37.4 µM)	6.25 (≈ 18.7 µM)	6.25 (≈ 18.7 µM)	melting point: 184 to 186 °C
CC(=S)NCC1CN(c2ccc(-c3nc(C)no3)cc2)C(=O)O1 (racemic) [Compound A4a, 3-(4′-(3″-methyl-1,2,4-oxadiazol-5-yl)-phenyl)-5-(N-thioacetylaminomethyl)-oxazolidin-2-one]	3.13 (≈ 9.42 µM)	1.6 (≈ 4.81 µM)	1.6 (≈ 4.81 µM)	≤ 0.4	1.6 (≈ 4.81 µM)	–
Cc1noc(-c2ccc(N3CC(Cn4cccn4)OC3=O)cc2)n1 (racemic) [Compound A5a]	> 50	> 50	> 50	> 50	> 50	–
Cc1noc(-c2ccc(N3CC(Cn4cccn4)OC3=O)cc2F)n1 (racemic) [Compound A5b]	> 50	> 50	> 50	> 50	> 50	–
Cc1noc(-c2ccc(N3CC(Cn4ccnc4)OC3=O)cc2)n1 (racemic) [Compound A6a]	> 50	> 50	> 50	> 50	> 50	–
Cc1noc(-c2ccc(N3CC(Cn4ccnc4)OC3=O)cc2F)n1 (racemic) [Compound A6b]	> 50	> 50	> 50	> 50	> 50	–
Cc1noc(-c2ccc(N3CC(Cn4cncn4)OC3=O)cc2)n1 (racemic) [Compound A7a]	> 50	> 50	> 50	> 50	> 50	–
Cc1noc(-c2ccc(N3CC(Cn4cncn4)OC3=O)cc2F)n1 (racemic) [Compound A7b]	> 50	> 50	> 50	> 50	> 50	–
Cc1noc(-c2ccc(N3CC(Cn4ccnn4)OC3=O)cc2)n1 (racemic) [Compound B1a]	–	–	–	–	–	MIC [1, 9]: 25 µg/mL (≈ 76.6 µM); MIC (MRSA clinical strain 433; [10]): 12.5 µg/mL (≈ 38.3 µM); MIC [2, 10]: 12.5 µg/mL (≈ 38.3 µM); MIC [3, 10]: 3.12 µg/mL (≈ 9.58 µM); MIC [4, 10]: 25 µg/mL (≈ 76.6 µM); melting point: 208 to 210 °C
Cc1noc(-c2ccc(N3CC(CN=C=S)OC3=O)cc2)n1 (racemic) [Compound B2a]	–	–	–	–	–	MIC [1, 9]: > 50 µg/mL; MIC (MRSA clinical strain 433; [10]): > 50 µg/mL; MIC [2, 10]: 50 µg/mL (≈ 158 µM); MIC [3, 10]: > 50 µg/mL; MIC [4, 10]: > 50 µg/mL
Cc1noc(-c2ccc(N3CC(CN=C=S)OC3=O)cc2F)n1 (racemic) [Compound B2b]	–	–	–	–	–	MIC [1, 9]: > 50 µg/mL; MIC (MRSA clinical strain 433; [10]): > 50 µg/mL; MIC [2, 10]: > 50 µg/mL; MIC [3, 10]: > 50 µg/mL; MIC [4, 10]: > 50 µg/mL
Cc1noc(-c2ccc(N3CC(CNC(N)=S)OC3=O)cc2)n1 (racemic) [Compound B3a]	–	–	–	–	–	MIC ([1]; racemic form, Table 3): >50 µg/mL; MIC (MRSA clinical strain 433; racemic form, Table 3): >50 µg/mL; MIC ([2]; racemic form, Table 3): >50 µg/mL; MIC ([3]; racemic form, Table 3): >50 µg/mL; MIC ([4]; racemic form, Table 3): >50 µg/mL
Cc1noc(-c2ccc(N3CC(CNC(N)=S)OC3=O)cc2F)n1 (racemic) [Compound B3b]	–	–	–	–	–	MIC ([1]; racemic form, Table 3): >50 µg/mL; MIC (MRSA clinical strain 433; racemic form, Table 3): >50 µg/mL; MIC ([2]; racemic form, Table 3): >50 µg/mL; MIC ([3]; racemic form, Table 3): >50 µg/mL; MIC ([4]; racemic form, Table 3): >50 µg/mL
CNC(=S)NC[C@@H]1CN(c2ccc(-c3nc(C)no3)cc2)C(=O)O1 [Compound B4aR]	–	–	–	–	–	MIC50 [5]: >128 µg/mL; MIC90 [5]: >128 µg/mL; MIC50 [6]: >128 µg/mL; MIC90 [6]: >128 µg/mL; MIC range [6]: >128 µg/mL
CNC(=S)NC[C@H]1CN(c2ccc(-c3nc(C)no3)cc2)C(=O)O1 [Compound B4aS]	–	–	–	–	–	MIC50 [5]: 2 µg/mL; MIC90 [5]: 4 µg/mL; MIC-range [5]: 0.5 to 8 µg/mL; MIC50 [6]: 16 µg/mL (≈ 46.1 µM); MIC90 [6]: 32 µg/mL (≈ 92.1 µM); MIC range [6]: 8 to 32 µg/mL
CNC(=S)NC[C@@H]1CN(c2ccc(-c3nc(C)no3)c(F)c2)C(=O)O1 [Compound B4bR]	–	–	–	–	–	MIC50 [5]: >128 µg/mL; MIC90 [5]: >128 µg/mL; MIC50 [6]: >128 µg/mL; MIC90 [6]: >128 µg/mL
CNC(=S)NC[C@H]1CN(c2ccc(-c3nc(C)no3)c(F)c2)C(=O)O1 [Compound B4bS]	–	–	–	–	–	MIC50 [5]: 2 µg/mL; MIC90 [5]: 4 µg/mL; MIC-range [5]: 0.5 to 8 µg/mL; MIC50 [6]: 8 µg/mL (≈ 21.9 µM); MIC90 [6]: 8 µg/mL (≈ 21.9 µM)
